This is an account of results in patent US12012467B2, “Small molecule DCN1 inhibitors and therapeutic methods using the same” (THE REGENTS OF THE UNIVERSITY OF MICHIGAN, priority 2017, dated 2024).

Numbered stars: 1 amine (or outer) side, 2 acyl side, 3 side chain; on linkers, the order of the positions; unused ones are H or OH. Square brackets hold non-standard residues; d marks the D form. Peptide text beside a SMILES is read from it. * marks the point of attachment. Ala(6-iPr-benzothiazol-2-yl) = CC(C)c1ccc2nc(C[C@H](N)C(=O)O)sc2c1; 2Nal = N[C@@H](Cc1ccc2ccccc2c1)C(=O)O; CO = O=C([*:1])[*:2]; Butyryl = CCCC(=O)*; Moc = COC(=O)* Some results are limits rather than exact numbers.

Chain of DCN1 (Q96GG9 58-259): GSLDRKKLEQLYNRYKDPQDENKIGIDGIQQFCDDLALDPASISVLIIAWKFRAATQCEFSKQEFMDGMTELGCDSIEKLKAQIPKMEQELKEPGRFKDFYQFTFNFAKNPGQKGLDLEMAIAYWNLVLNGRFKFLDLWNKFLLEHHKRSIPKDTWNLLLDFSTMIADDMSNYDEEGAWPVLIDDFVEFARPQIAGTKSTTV

The first assay addresses DCN1 (Homo sapiens (Human), UniProt Q96GG9). The experiment in a line: Competitive FP binding assay. To be noted: bounds given in μM; read-out: Binding affinity to DCN1 (IC50). Put shortly:
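FP competition with DCN1 in 100 mM phosphate pH 6.5, 0.02% Tween-20, 2% DMSO, probe 5 nM final. Equilibrated 30 min at room temperature with shaking. DCN1 was His6-tagged (uncleaved), expressed in E. coli Rosetta2 and purified by Ni-NTA and gel filtration.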
Broadly, the IC50 is the midpoint of a concentration-inhibition curve. As to `CCC(=O)N[C@@H](Cc1nc(C)c(-c2cccc(C#N)c2)s1)C(=O)N[C@H](CN)Cc1ccccc1` [Example 231], the 50% inhibitory concentration (IC50) was greater than 10 µM.
Consider `CCC(=O)N[C@@H](Cc1nc(C)c(-c2cccc(C(F)(F)F)c2)s1)C(=O)N[C@H](CN)Cc1ccccc1` [Example 233], for which the IC50 was greater than 10 µM.
Take `CC[C@H](C)[C@H](NC(=O)[C@H](Cc1ccc2ccccc2c1)NC(C)=O)C(=O)N[C@@H](CCCCN)C(=O)N[C@@H](CC(C)C)C(N)=O` [Example 1] (Ac-[2Nal]IKL-NH2): the IC50 is greater than 10 µM.
Still for that read-out and setting: as for `CCC(=O)N[C@@H](Cc1nc2ccc(Cl)cc2s1)C(=O)N[C@H](C(=O)N[C@@H](CCCCN)C(=O)N[C@@H]1CCOc2ccccc21)C1CCNCC1` [Example 35], the figure is greater than 5 µM.
For `CCC(=O)N[C@@H](Cc1nc2ccc(Cl)cc2s1)C(=O)NCCN` [Example 235], the IC50 is greater than 10 µM.
For `CCC(=O)N[C@@H](Cc1cccc(C)n1)C(=O)N[C@H](C(=O)N[C@@H](CCCCN)C(=O)NC(c1ccccc1)c1ccccc1)[C@@H](C)CC` [Example 134], the IC50 was greater than 10 µM.
On the same count and under the same terms, as for `CCC(=O)N[C@@H](Cc1nc(C)c(-c2ccc(C#N)cc2)s1)C(=O)N[C@H](CN)Cc1ccccc1` [Example 105], the figure is greater than 10 µM; as for `CCC(=O)N[C@@H](Cc1nc(C)c(-c2ccccc2Cl)s1)C(=O)N[C@H](CN)Cc1ccccc1` [Example 104], greater than 10 µM.
The same measure, in the same setting: as for `CCC(=O)N[C@@H](Cc1cccnc1)C(=O)N[C@H](C(=O)N[C@@H](CCCCN)C(=O)NC(c1ccccc1)c1ccccc1)[C@@H](C)CC` [Example 133], the figure is greater than 10 µM; as for `NCCNC(=O)[C@H](Cc1nc2ccc(Cl)cc2s1)NC(=O)CCOCc1ccccc1` [Example 238], greater than 10 µM.
As to `CCC(=O)N[C@@H](Cc1nc2ccc(C(C)C)cc2s1)C(=O)N[C@@H](C)CN` [Example 54, (S)—N—((S)-1-aminopropan-2-yl)-3-(6-isopropylbenzo[d]thiazol-2-yl)-2-propionamidopropanamide], the IC50 is greater than 10 µM.
On the same count and under the same terms, the figure for `CC[C@H](C)[C@H](NC(=O)[C@H](Cc1ccc2ccccc2c1)NC(=O)NC)C(=O)N[C@@H](CCCCN)C(=O)N[C@@H](CC(C)C)C(N)=O` [Example 169] ({NHMe-CO}-[2Nal]IKL-NH2) is greater than 10 µM; for `CCC(=O)N[C@@H](Cc1nc2ccc(Cl)cc2s1)CN(Cc1ccccc1)Cc1ccccc1` [Example 259] it is greater than 10 µM.
Turning to `CCC(=O)N[C@@H](Cc1nc2ccc(C(C)C)cc2s1)C(=O)NCCN` [Example 53, (S)—N-(2-aminoethyl)-3-(6-isopropylbenzo[d]thiazol-2-yl)-2-propionamidopropanamide], the IC50 was greater than 10 µM.
As to `CCC(=O)N[C@H](Cc1ccc2ccccc2c1)C(=O)N[C@H](C(=O)N[C@@H](CCCCN)C(=O)NC(c1ccccc1)c1ccccc1)C1CCCC1` [Example 145], the half-maximal inhibitory concentration (IC50) is greater than 10 µM.
As for `CCC(=O)N[C@@H](Cc1cn(-c2cccc(Cl)c2)cn1)C(=O)N[C@H](CN)Cc1ccccc1` [Example 239], the IC50 was greater than 10 µM.

Staying with this assay, now noted: read-out: Binding affinity to DCN1 (IC50 (nM)).
In the case of `CCC(=O)N[C@@H](Cc1nc2ccc(Cl)cc2o1)C(=O)N[C@H](C(=O)N[C@@H](CCCCN)C(=O)NC(c1ccccc1)c1ccccc1)[C@@H](C)CC` [Example 156], the IC50 came to 0.194 µM.
For `CCC(=O)N[C@@H](Cc1nc2ccc(Cl)cc2s1)C(=O)N[C@H](C(=O)N[C@@H](CCCCN)C(=O)N[C@@H]1CCOc2ccccc21)C1CCCC1` [Example 33], the IC50 turned out to be 0.103 µM.
Turning to `CCC(=O)N[C@@H](Cc1nc2ccc(Cl)cc2s1)C(=O)N[C@H](C(=O)N[C@@H](CCCCN)C(=O)N[C@@H]1CCOc2cccc(Cl)c21)C1CCCC1` [Example 172], the 50% inhibitory concentration (IC50) is 0.121 µM.
On to `CCC(=O)N[C@@H](Cc1nc2ccc(C)cc2s1)C(=O)N[C@H](C(=O)N[C@@H](CC1CCNCC1)C(=O)N[C@@H]1CCOc2ccccc21)C1CCOCC1` [Example 191], for which the IC50 is 0.187 µM.
As to `CC[C@H](C)[C@H](NC(=O)[C@H](Cc1nc2ccc(C(C)C)cc2s1)NC(C)=O)C(N)=O` [Example 7, (2S,3S)-2-((S)-2-acetamido-3-(6-isopropylbenzo[d]thiazol-2-yl)propanamido)-3-methylpentanamide], the IC50 was determined as 1.04 ± 0.128 µM.
Still for that read-out and setting: as for `CCC(=O)N[C@@H](Cc1nc(C)c(C(C)C)s1)C(=O)N[C@H](C(=O)N[C@@H](CCCCN)C(=O)N[C@@H]1CCOc2ccccc21)C1CCOCC1` [Example 187], the figure is 0.886 µM.
As for `CC[C@H](C)[C@H](NC(=O)[C@H](Cc1nc2ccc(Cl)cc2s1)NC(C)=O)C(=O)N[C@@H](CCCCN)C(=O)N[C@@H](CC(C)C)C(N)=O` [Example 4, (S)-2-((2S,3 S)-2-((S)-2-acetamido-3-(6-chlorobenzo[d]thiazol-2-yl)propanamido)-3-methylpentanamido)-6-amino-N—((S)-1-amino-4-methyl-1-oxopentan-2-yl)hexanamide], the IC50 turned out to be 0.116 µM.
Consider `CCC(=O)N[C@@H](Cc1ccc2ccccc2c1)C(=O)N[C@H](C(=O)N[C@@H](CCCCN)C(=O)NC(c1ccc(F)cc1)c1ccc(F)cc1)C1CCCC1` [Example 138], for which the IC50 stood at 1.75 µM.
For the compound `CCC(=O)N[C@@H](Cc1ccc2ccccc2c1)C(=O)N[C@H](C(=O)N[C@@H](CCCCN)C(=O)NC(c1ccccc1)c1ccccc1)C1CCCC1` [Example 19], the IC50 is 0.27 µM.
Consider `CCC(=O)N[C@@H](Cc1ccc2ccccc2c1)C(=O)N[C@H](C(=O)N[C@@H](CCCCN)C(=O)N[C@H]1CCc2ccccc21)[C@@H](C)CC` [Example 14], for which the IC50 is 1.93 µM.
Turning to `CCC(=O)N[C@@H](Cc1ccc2ccccc2c1)C(=O)N[C@H](C(=O)N[C@@H](CCCCN)C(=O)N[C@@H]1CCOc2ccccc21)C1CCCC1` [Example 149], the IC50 was determined as 0.378 µM.
On to `CCC(=O)N[C@@H](Cc1nc2ccc(Cl)cc2s1)C(=O)N[C@H](CN)[C@@H](C)CC` [Example 213], for which the 50% inhibitory concentration (IC50) is 0.746 ± 0.072 µM.
As for `CCC(=O)N[C@@H](Cc1nc2ccc(Cl)cc2s1)C(=O)N[C@H](C(=O)N[C@@H](CCCCN)C(=O)NCc1ccncc1)C1CCOCC1` [Example 243], the IC50 amounted to 1.51 µM.
Turning to `CCC(=O)N[C@@H](Cc1nc2ccc(C(C)C)cc2s1)C(=O)N[C@H](CNC(=O)CN1CCOCC1)C1CCCCC1` [Example 57, (S)—N—((S)-1-cyclohexyl-2-(2-morpholinoacetamido)ethyl)-3-(6-isopropylbenzo[d]thiazol-2-yl)-2-propionamidopropanamide], the IC50 turned out to be 0.0704 µM.
Still for that read-out and setting: as for `CCC(=O)N[C@@H](Cc1ccc2ccccc2c1)C(=O)N[C@H](C(=O)N[C@@H](CCCCN)C(=O)N[C@@H]1CNCc2ccccc21)C1CCCC1` [Example 160], the figure is 0.457 µM.
With `CCC(=O)N[C@@H](Cc1nc2ccc(Br)cc2s1)C(=O)N[C@H](CN)Cc1ccccc1` [Example 222], the IC50 is 0.858 µM.
Regarding `CCC(=O)N[C@@H](Cc1ccc2ccccc2c1)C(=O)N[C@H](C(=O)N[C@@H](CCCCN)C(=O)N[C@H](CN)c1ccccc1)C1CCCC1` [Example 150], the half-maximal inhibitory concentration (IC50) stood at 2 µM.
On to `CCC(=O)N[C@@H](Cc1nc2ccc(C)cc2s1)C(=O)N[C@H](C(=O)N[C@@H](CCCCN(C)C)C(=O)N[C@@H]1CCOc2ccccc21)C1CCOCC1` [Example 188], for which the IC50 is 0.156 µM.
Consider `CCC(=O)N[C@@H](Cc1nc2ccc(C(C)C)cc2s1)C(=O)N[C@H](CNC(=O)CCCN1CCOCC1)C1CCCCC1` [Example 59, N—((S)-2-cyclohexyl-2-((S)-3-(6-isopropylbenzo[d]thiazol-2-yl)-2-propionamidopropanamido)ethyl)-4-morpholinobutanamide], for which the half-maximal inhibitory concentration (IC50) stood at 0.0631 µM.
As to `CCC(=O)N[C@@H](Cc1nc2ccccc2s1)C(=O)N[C@H](C(=O)N[C@@H](CCCCN)C(=O)NC(c1ccccc1)c1ccccc1)[C@@H](C)CC` [Example 152], the IC50 was 0.376 µM.
As to `CC(C)C(=O)N[C@@H](Cc1nc2ccc(C(C)C)cc2s1)C(=O)N[C@H](CN)C1CCCCC1` [Example 263], the IC50 came out at 0.139 µM.
On to `CCC(=O)N[C@@H](Cc1nc2cc(Cl)ccc2s1)C(=O)N[C@H](C(=O)N[C@@H](CCCCN)C(=O)NC(c1ccccc1)c1ccccc1)[C@@H](C)CC` [Example 153], for which the IC50 came out at 1.9 µM.
With `CCC(=O)N[C@@H](Cc1nc2ccc(C)cc2s1)C(=O)N[C@H](C(=O)N[C@@H](C[C@H]1CC[C@H](CN)CC1)C(=O)N[C@@H]1CCOc2ccccc21)C1CCOCC1` [Example 189], the IC50 worked out at 0.23 µM.
Still for that read-out and setting: as for `CCC(=O)N[C@@H](Cc1nc2ccc(Cl)cc2s1)C(=O)N[C@H](CN)C1CCCC1` [Example 216], the figure is 0.559 µM; as for `CCC(=O)N[C@@H](Cc1ccc2ccccc2c1)C(=O)N[C@H](C(=O)N[C@@H](CCCCNC1CCN(C)CC1)C(=O)NC(c1ccc(F)cc1)c1ccc(F)cc1)C1CCCC1` [Example 144], 0.273 µM; as for `CC[C@H](C)[C@H](NC(=O)[C@H](Cc1nc2ccc(C(C)C)cc2s1)NC(=O)OC)C(=O)N[C@@H](CCCCN)C(=O)N[C@@H](CC(C)C)C(N)=O` [Example 279] (Moc-[Ala(6-iPr-benzothiazol-2-yl)]IKL-NH2), 0.217 µM.
On to `CCC(=O)N[C@@H](Cc1nc2ccc(Cl)cc2s1)C(=O)N[C@H](C(=O)N[C@@H](CCCCN)C(=O)N[C@@H]1CCOc2cc(Cl)ccc21)C1CCCC1` [Example 171], for which the IC50 came to 0.168 µM.
On the same count and under the same terms, the figure for `CCC(=O)N[C@@H](Cc1ccc2ccccc2c1)C(=O)N[C@H](C(=O)N[C@@H](CCCCN)C(=O)N[C@@H]1CCCc2ccccc21)C1CCCC1` [Example 148] is 0.402 µM; for `CCC(=O)N[C@@H](Cc1nc2ccc(C(C)C)cc2s1)C(=O)N[C@H](CNC(=O)c1c[nH]cn1)C1CCCCC1` [Example 67] it is 0.257 µM.
Consider `CCC(=O)N[C@@H](Cc1nc(C)c(-c2cccc(Cl)c2)s1)C(=O)N[C@H](C(=O)N[C@@H](CCCCN)C(=O)N[C@@H]1CCOc2ccccc21)C1CCOCC1` [Example 207], for which the IC50 turned out to be 0.139 µM.
For the compound `CCCC(=O)N[C@@H](Cc1nc2ccc(C(C)C)cc2s1)C(=O)N[C@H](C(=O)N[C@@H](CCCCN)C(=O)N[C@@H](CC(C)C)C(N)=O)[C@@H](C)CC` [Example 276] (Butyryl-[Ala(6-iPr-benzothiazol-2-yl)]IKL-NH2), the IC50 was determined as 0.109 µM.
